Test results: patent publication US20130237556A1, “BERBERINE ALKALOID AS A MEDICAMENT FOR PREVENTION AND TREATMENT OF NEURAL DISEASE” (HONG KONG BAPTIST UNIVERSITY, priority 2012, published 2013)
“Also recorded” adds a separate entry of the source.

Columns and labels:
[1] = test system: TgCRND8 mice; assay: Morris water maze (visible platform, hidden platform, probe trials); type: in vivo, mouse
[2] = test system: TgCRND8 mice; assay: Western blot of brain homogenates (APP processing, tau phosphorylation, Akt/GSK3); type: in vivo, mouse
[3] = test system: N2a-SwedAPP cells; assay: MTT toxicity assay; type: cell-based, mouse; settings: up to 25 μM BBR, 24 h
Experimental: N2a-SweAPP cells are mouse neuroblastoma N2a cells stably transfected with human Swedish mutant APP695, and were gifts from Dr. Gopal Thinakaran (University of Chicago, Chicago Ill.). Cells were maintained in Dulbecco's modified Eagle's medium (DMEM) (Invitrogen, Carlsbad, Calif.) supplemented with 10% fetal bovine serum, penicillin and streptomycin and 200 μg/mL G418 (Invitrogen). Cells were cultured either in multiwell dishes or on 60 mm tissue culture plates in DMEM 10% with FBS Cell cultures were incubated at 37° C. in a humid 5% CO2/ 95% air environment. After cells were grown close to confluence, they were treated with/without different concentrations of BBR in DMEM (1% FBS) for 24 h. […] For the concentration-dependent treatment, cells were treated with serial dilutions of BBR ranging from 0-20 μM for 2 or 12 h prior to lysis with ice-cold RIPA buffer (20 mM Tris, pH 7.4, 150 mM NaCl, 1% triton-X, 0.5% sodium deoxycholate, EDTA) containing protease inhibitor cocktails (EMD chemicals, Philadelphia, Pa.) to find the optimal range of BBR. For the time-dependent application, cells were treated with a 20 μM concentration of BBR and incubated at time points ranging from 0-180 min prior to lysis. For immunofluorescent staining, N2a-SwedAPP cells were seeded on glass cover slips at a density of 0.5×10^5 viable cells per well in a 24-well plate. […]

[4] = test system: N2a-SwedAPP cells; assay: Immunofluorescence of p-APP in endosomal compartments (Rab5); type: cell-based, mouse; settings: 20 μM BBR, 3 h
Experimental: N2a-SweAPP cells are mouse neuroblastoma N2a cells stably transfected with human Swedish mutant APP695, and were gifts from Dr. Gopal Thinakaran (University of Chicago, Chicago Ill.). Cells were maintained in Dulbecco's modified Eagle's medium (DMEM) (Invitrogen, Carlsbad, Calif.) supplemented with 10% fetal bovine serum, penicillin and streptomycin and 200 μg/mL G418 (Invitrogen). Cells were cultured either in multiwell dishes or on 60 mm tissue culture plates in DMEM 10% with FBS Cell cultures were incubated at 37° C. in a humid 5% CO2/ 95% air environment. After cells were grown close to confluence, they were treated with/without different concentrations of BBR in DMEM (1% FBS) for 24 h. […]
For higher resolution microscopy, images were acquired using an Olympus IX70 Delta Vision microscopy system (Applied Precision, Issaquah, Wash.) with a 100×1.5 numerical aperture oil immersion lens. […] Subsequently serial Z-stacks of fluorescence images at 0.2-μm interval were acquired and deconvolved via a controlled iterative algorithm to generate high-resolution images of cells using […] (Applied Precision).

[5] = molecular target: T1, Aβ1-42 fibril formation (Homo sapiens, UniProt P05067); assay: Inhibition of Aβ1-42 fibril formation in vitro; type: biochemical
T1 sequence (P05067 672-713 limits assumed): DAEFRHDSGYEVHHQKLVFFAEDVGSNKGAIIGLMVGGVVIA

[6] = molecular target: T1, Aβ1-42 fibril formation; settings: BBR 20 μM, in vitro; cited from earlier work
[7] = Regular oral BBR treatment of TgCRND8 mice: body weight and side effects; settings: BBR 25 or 100 mg/kg/d orally for 4 months
[8] = BBR 25 and 100 mg/Kg/d vs vehicle
[9] = BBR- vs vehicle-treated TgCRND8
[10] = BBR-treated vs vehicle-treated TgCRND8, dose not stated

COc1ccc2cc3[n+](cc2c1OC)CCc1cc2c(cc1-3)OCO2 [BBR, 5,6-dihydro-9,10-dimethoxybenzo[g]-1,3-benzodioxolo[5,6-a]quinolizinium]
probe trial: time spent in the target quadrant ([1]; 25 and 100 mg/kg/d vs vehicle-treated TgCRND8): highest duration; also recorded: prevent decrease in the time spent in the target quadrant | probe trial: spatial bias ([1]; BBR 25 mg/Kg, all probe trials): significantly increases their spatial bias | hidden platform path distance (swim path) ([1]; low and high doses of BBR (25 and 100 mg/kg/d) vs vehicle-treated TgCRND8): significantly reduced swim path; also recorded: reduced the path distance; also recorded: show a reduction in swimming distance | CTF-α and β levels in brain homogenates ([2]; 25 mg/Kg/day): significantly reduces | ADAM-10 level in brain homogenates [2, 8]: no significant difference; also recorded: no effect | BACE-1 level in brain homogenates [2, 8]: no effect; also recorded: no significant difference | full length APP level in brain homogenates [2, 8]: no effect; also recorded: no significant difference | total GSK3α/β and total Akt ([2]; BBR treatment): unaltered | IDE level in brain homogenates ([2]; BBR vs vehicle): no significant difference; also recorded: does not affect | neprilysin level in brain homogenates ([2]; BBR vs vehicle): no significant difference; also recorded: does not affect | p-Cdk5 (Y15) level [2, 9]: no significant differences | p-JNK (Thr183/Tyr185) level [2, 9]: no significant differences | phosphorylated Akt (p-Akt) level normalized to total Akt [2, 9]: significantly high | tau-1 immunoreactivity (dephosphorylated tau) ([2]; BBR-treated TgCRND8): significant increase | enhancement in phosphorylated GSK3α and β at Ser 21 and 9 ([2]; BBR-treated vs vehicle-treated TgCRND8): 50% | decrease of phosphorylated tau at AT8 phosphoepitope [2, 10]: 30% | decrease of phosphorylated tau at AT180 phosphoepitope [2, 10]: 42% | decrease of phosphorylated tau at PHF-1 phosphoepitope [2, 10]: 26% | total tau levels ([2]; between the groups): No significant difference | decrease in the p-APP and p-CTFs ([2]; high dose group vs vehicle): 27-28% | decrease in the p-APP and p-CTFs ([2]; low dose group vs vehicle): 46-50% | cell viability (MTT) [3]: did not affect cell viability | pAPP staining in the endosomal compartments [4]: markedly reduced | IC50 ([5]; in vitro): 23.5 µM | effective in vitro concentration (approximately 20 μM) relative to brain levels ([5]; printed as 'times less than those found in the brain'): 23 times | inhibition of Aβ1-42 fibril formation [6]: 36.3% | animal body weight [7]: does not significantly influence animal body weight
